# Measurements as given in US4701521A, “Method of effecting cellular uptake of molecules” (The Trustees of Boston University, priority 1979, dated 1987).
# Read-outs that look alike come from different tables or passages of the source.
# Assays:
# [1] = system: BHK (DMN^ts) baby hamster kidney cell line; conditions: for Cellular Uptake in 60 min.: 3 μg/ml
# Method: This experiment was done with a baby hamster kidney cell line (BHK) transformed by exposure to dimethylnitrosamine (DMN), growing with a non-malignant phenotype at 32° C. and a malignant phenotype at 38.5° C. This temperature-sensitive mutant line, called BHK (DMN^ts) was described by G. DeMayorca et al. Proc. Natl. Acad. Sci U.S.A., 70, 46-49 (1973). The cells were grown as monolayers in Dulbecco's high glucose medium. The transition from normal to transformed phenotype requires 3 to 4 population doublings or approximately 56 hours of growth at 38.5° C. The reversion to the normal, non-malignant phenotype likewise require 3 to 4 population doublings or approximately 112 hours of growth at 32° C. […] At time 0, the growth media of the confluent monolayers were replaced by serum free medium prewarmed to 37° C. and containing 3 μg/ml radioiodinated polymer. The monolayers were then incubated for 60 min. at 37° C.
# [2] = system: variant of the P 1798 lymphosarcoma, steroid-resistant, presumed MTX-sensitive; experiment: Antitumor effect (tumor weight), steroid-resistant variant; type: in vivo, BALB/c mice; conditions: for Mean Tumor Weight: Mean ± SEM
# From the text: The inoculation developed into a palpable tumor within 7-8 days and killed the animal on the average within 14 days. Following inoculation, mice were divided into 4 groups of 4 or 5 mice.
# Treatment consisted of one daily intravenous injection for 4 consecutive days, and was begun on Day 11 and Day 12 post-inoculation in experiment number 1 and 2 respectively. All animals were sacrificed one day after the last injection.
# [3] = system: L929 fibroblast cells; experiment: Cellular uptake of HRP and conjugates as cell-associated peroxidase activity; type: cell-based, mouse
# From the text: The rate of color development measured at 460 nm (ΔA460 nm /min) was used as an indication of enzymatic activity, and the enzymatic activity measured in the cell extract was used as an expression of cellular uptake.
# Following exposure to HRP, or one of its two conjugates, the monolayers of L 929 mouse fibroblasts were washed and detached and the detached cells were washed as described in Example 3. The cells were then lysed and the cell extract used for measurement of enzymatic activity of HRP as described in Example 6.
# [4] = system: L929 fibroblasts; experiment: Cytochemical localization of HRP reaction product (light and electron microscopy); type: cell-based, mouse
# [5] = system: Sarcoma S-180 monolayers; conditions: for Uptake, 1-min / Uptake, 60-min: 3 μg/ml ^125 I-PLL, 37° C.; for Uptake, 60-min (Corrected for Concentration of 79 nM): assuming uptake linear with concentration
# From the text: Poly-L-lysines of three different average molecular weights, i.e., 38,000, 115,000 and 230,000, were radio-iodinated using the Bolton-Hunter Reagent. See Bolton, A. E. and Hunter, W. M., Biochem J., 133, pp 529-38 (1973).
# [6] = system: L-929 fibroblasts; experiment: Cytocidal effects of 6-MPRP and 6-MPRP-PLL; type: cell-based, mouse
# From the text: […] After exposure to the free or conjugated drug, the monolayers were kept growing for 2 days in standard growth medium, at which time no cytocidal effect could be detected.
# [7] = Normal phenotype, PLL MW 125,000, PDL MW 130,000
compound,measurement,setting,value
poly-L-lysine [PLL],Transformed/Normal (uptake ratio),[1],1.43
same,Cellular Uptake in 60 min.,[1]; [7],525 ng/mg cell protein
same,Cellular Uptake in 60 min.,[1]; Transformed phenotype,750 ng/mg cell protein
same,% of Controls (tumor weight),[2]; Experiment No. 1,113%
same,Mean Tumor Weight,"[2]; Experiment No. 1, daily i.v. 4 days from Day 11",6.05 ± 0.52 g
same,% of Controls (tumor weight),[2]; Experiment No. 2,102%
same,Mean Tumor Weight,"[2]; Experiment No. 2, daily i.v. 4 days from Day 12",6.13 ± 0.31 g
horseradish peroxidase [HRP],Cell-associated peroxidase activity,"[3]; Example 6, enzyme concentration in medium 150 μg/ml",0.14 ΔA460 nm /min/mg cell protein
same,Cell-associated peroxidase activity,"[3]; Example 6, enzyme concentration in medium 1500 μg/ml",1.55 ΔA460 nm /min/mg cell protein
same,Cell-associated peroxidase activity,"[3]; Example 10, 60-minute exposure, 1.5 μg/ml in medium",0 ΔA460 nm /min/mg cell protein
same,Cell-associated peroxidase activity,"[3]; Example 10, 60-minute exposure, 15 μg/ml in medium",0 ΔA460 nm /min/mg cell protein
same,"staining of HRP reaction products, light microscopy","[4]; 60' exposure, HRP 150 μg/ml, HRP-PLL 1.5, 5 and 15 μg/ml",minimal staining
same,"HRP reaction product, electron microscopy",[4]; HRP at 100-time greater concentration than HRP-PLL,minimal amounts of stained reaction product
"poly-L-lysine [PLL (MW 250,000)]","Uptake, 1-min",[5],153.7 ng/mg cell protein
same,"Uptake, 60-min",[5],695.4 ng/mg cell protein
same,"Uptake, 60-min (Corrected for Concentration of 79 nM)",[5],4209 ng/mg cell protein
"O=P(O)(O)OC[C@H]1O[C@@H](n2cnc3c(=S)[nH]cnc32)[C@H](O)[C@@H]1O [6-MPRP, 6-mercaptopurine ribosylphosphate]","growth inhibition, drug present for the duration of the experiment",[6]; 2×10^-6 M,both compounds had inhibiting effects
same,cell growth after subculture and 7 additional days,[6]; 1 h exposure to combination of free 6-MPRP (1×10^-5 M) and free PLL,grew at a rate undistinguichable from that of controls
"poly-L-lysine [PLL (MW 115,000)]","Uptake, 1-min",[5],112.3 ng/mg cell protein
same,"Uptake, 60-min",[5],513.3 ng/mg cell protein
same,"Uptake, 60-min (Corrected for Concentration of 79 nM)",[5],1717 ng/mg cell protein
"poly-L-lysine [PLL (MW 38,000)]","Uptake, 1-min",[5],18.8 ng/mg cell protein
same,"Uptake, 60-min",[5],349.4 ng/mg cell protein
same,"Uptake, 60-min (Corrected for Concentration of 79 nM)",[5],349 ng/mg cell protein
poly-D-lysine [PDL],Transformed/Normal (uptake ratio),[1],1
same,Cellular Uptake in 60 min.,[1]; [7],685 ng/mg cell protein
same,Cellular Uptake in 60 min.,[1]; Transformed phenotype,680 ng/mg cell protein
